The results in this text go back to US11267806B2, “Indazole compound for use in inhibiting kinase activity, composition and application thereof” (Shenzhen TargetRx, Inc., priority 2017, dated 2022).

Structures are written as SMILES.

The test system of one series is Ba/F3 EML-ALK cells. Kind of series: Cytotoxicity assay (cell viability, CellTiter-Glo), Ba/F3 EML-ALK. It counts as cell-based. The conditions noted are these: Mus musculus, BaF3, 72 h; cell viability, 3 days incubation; read-out: Ba/F3 EML-ALK IC50.
The subject of series [1] is Ba/F3 EML-ALK^L1196M cells. Nature of the series: Cytotoxicity assay (cell viability, CellTiter-Glo), Ba/F3 EML-ALK L1196M. It counts as cell-based. The conditions noted are these: Mus musculus, BaF3, 72 h; cell viability, 3 days incubation; read-out: Ba/F3 EML-ALK^L1196M IC50. For orientation: Cellular ATP, detected with luciferase, serves as a proxy for viable cell number.

Series [2] is described as follows: Pharmacokinetic assay in rats. The series is classed as in vivo, SD rat. The note with it: male SD rats, i.g., 3 mg/kg; for AUC(0-t) / Cmax / MRT / Tmax: rat, plasma, po. The protocol: (4) Pharmacokinetic Assay in Rats Assay objective: after administration of test compounds to rats, the pharmacokinetic behavior of the compounds disclosed herein was investigated. Assay Animals: Species and strains: SD rat grade: SPF grade Gender and quantity: male, 6 Weight range: 180 to 220 g (the actual weight range was from 187 to 197 g) Assay Procedure: Before blood samples were collected, 20 μL of 2 M sodium fluoride solution (esterase inhibitor) was previously added to an EDTA-K2 anticoagulant tube, dried in an 80° C. oven, and placed in a 4° C. refrigerator. Rats (male, weighing 187 to 197 g) were randomly divided into 2 groups, and were fasted overnight in the afternoon before the experiment but were allowed to drink water freely. Food was given 4 hours after the administration. […] About 100-200 μL of blood was taken from the orbital vein of rats at 15 min, 30 min, 1, 2, 3, 5, 8 and 10 h after administration, placed in a 0.5 mL Eppendorf tube with EDTA-K2 anticoagulant and mixed immediately. After anticoagulation, the tube was gently inverted 5-6 times as quickly as possible. After the blood was taken, it was placed in an ice box, and then within 30 min, the blood sample was centrifuged for 10 min at 4000 rpm and 4° C. to separate the plasma. Immediately after collection of all plasma, it was stored at −20° C. The concentration of the drug in plasma at each time point was determined after sample collection at all time points. Based on the data of the average concentration of the drug in plasma versus time after administration obtained as described above, pharmacokinetics-related parameters of male SD rats after the i.g. administration of test compounds (3 mg/kg) were calculated using the Winnonin software according to non-compartment statistical moment theory.

Series [3] in a line: Liver microsomal metabolism assay, human. It counts as in vitro ADME. The conditions noted are these: pH 7.4, human liver microsomes 0.5 mg/mL, compound 1 μM, 37° C.; for microsomal CLint at 1 μM: read-out: Human liver microsome assay CLint; for half-life at 1 μM: read-out: Human liver microsome assay t1/2. The protocol:
(§1) (3) Liver Microsomal Metabolism Assay
(§2) […]; Coenzyme (NADPH/NADH): 1 mM, Sigma Life Science; Magnesium chloride: 5 mM, 100 mM phosphate buffer (pH 7.4).
(§3) Preparation of stock solutions: Powder of the compounds were accurately weighed and dissolved in DMSO to 5 mM.
(§4) Preparation of phosphate buffer (100 mM, pH7.4): A pre-prepared 0.5M potassium dihydrogen phosphate (150 mL) was mixed with 0.5M dibasic potassium phosphate (700 mL). The pH of the mixture was adjusted to 7.4 with 0.5M dibasic potassium phosphate solution. The mixture was diluted 5-fold with ultrapure water before use, and magnesium chloride was added to obtain a phosphate buffer (100 mM) containing 100 mM potassium phosphate, 3.3 mM magnesium chloride, pH 7.4.
(§5) A NADPH regeneration system solution (containing 6.5 mM NADP, 16.5 mM G-6-P, 3 U/mL G-6-P D, 3.3 mM magnesium chloride) was prepared and placed on wet ice prior to use.
(§6) Incubation of the samples: The stock solutions of the respective compounds were respectively diluted to 0.25 mM with an aqueous solution containing 70% acetonitrile, and used as a working solution, ready for use. 398 μL of the dilution of human liver microsomes or rat liver microsomes were added to 96-well incubation plates (N=2), respectively, and 2 μL of 0.25 mM working solution was added and mixed.
(§7) Metabolic stability assay: 300 μL of pre-chilled stop solution was added to each well of 96-well deep well plates and placed on ice as stop plates. The 96-well incubation plates and NADPH regeneration system were placed in a 37° C. water bath box, shaken at 100 rpm and pre-incubated for 5 min. 80 μL of incubation solution was taken out from each well of the incubation plates and added to the stop plates, mixed, and replenished with 20 μL of NADPH regeneration system solution as a 0-min sample. 80 μL of NADPH regeneration system solution was added to each well of the incubation plates to start the reaction and start counting. […] Separately, 100 μL of the reaction solutions was taken at 10, 30, and 90 min reaction, respectively, added to stop plates, and vortexed for 3 minutes to terminate the reaction. The stop plates were centrifuged at 5000×g at 4° C. for 10 min. 100 μL of the supernatant was added to a 96-well plate to which 100 μL of distilled water was previously added, mixed, and analyzed by LC-MS/MS.
(§8) Data analysis: The peak areas of the corresponding compounds and internal standard were detected by LC-MS/MS system, and the ratio of the peak area of the compounds to the internal standard was calculated.
(§9) The metabolic stability of the compounds in human and rat liver microsomes was evaluated by simultaneously testing and comparing the compounds disclosed herein and the non-deuterated compound. […]

The nature of series [4]: Liver microsomal metabolism assay, rat. The series is classed as in vitro ADME. The note with it: SD, pH 7.4, rat liver microsomes 0.5 mg/mL, compound 1 μM, 37° C.; for microsomal CLint at 1 μM: read-out: Rat liver microsome assay CLint; for half-life at 1 μM: read-out: Rat liver microsome assay t1/2. The protocol:
as §1, §2, §3, §4, §5, §6, §7, §8, §9

The AUC(0-t) is exposure summed from dosing to a finite time, without extrapolation to infinity. Read a high AUC(0-t) as high exposure. Usually Cmax stands for the maximum level reached in the sampled fluid or tissue. What is called MRT is the average time that molecules of a dose stay in the body. As usually defined, the Tmax is the time from dosing to the highest level.

Take `[2H]C1([2H])CC(Nc2cc(N3CCN(C)CC3)ccc2C(=O)Nc2n[nH]c3ccc(Cc4cc(F)cc(F)c4)cc23)CC([2H])([2H])O1` [Compound T-8, N-(5-(3,5-difluorobenzyl)-1H-indazol-3-yl)-4-(4-methylpiperazin-1-yl)-2-((tetrahydro-2H-pyran-4-yl-2,2,6,6-d4)amino)benzamide]: the IC50 in the series with Ba/F3 EML-ALK cells was in the range of 50 to 150 nM. In addition, the IC50 in series [1] is greater than 200 nM. In series [2], this compound had a Cl_pred of 113 mL/min/kg, an F of 11.78%, an AUC(0-t) of 1530 ng·h/mL and a Cmax of 254 ng/mL. Moreover, in series [2], the MRT is 265 min and the Tmax was determined as 200 min. Moreover, in series [3], the microsomal CLint at 1 μM turned out to be 44.9 µL/min/mg and the half-life at 1 μM was determined as 30.9 min. Besides, in series [4], the microsomal CLint at 1 μM was found to be 33.6 µL/min/mg and the half-life at 1 μM was determined as 41.3 min.

Consider `[2H]c1c(F)cc(Cc2ccc3[nH]nc(NC(=O)c4ccc(N5CCN(C)CC5)cc4NC4CCOCC4)c3c2)cc1F` [Compound T-9], for which the IC50 is 50 to 150 nM with Ba/F3 EML-ALK cells and greater than 200 nM in series [1]. Further, the values for the microsomal CLint at 1 μM in series [3] and in series [4] were 47.5 µL/min/mg and 33.7 µL/min/mg, respectively. Further, the half-life at 1 μM is 29.2 min in series [3] and 41.1 min in series [4].

For the compound `[2H]c1cc(C(=O)Nc2n[nH]c3ccc(Cc4cc(F)cc(F)c4)cc23)c(NC2CCOCC2)c([2H])c1N1CCN(C)CC1` [Compound T-4, N-(5-(3,5-difluorobenzyl)-1H-indazol-3-yl)-4-(4-methylpiperazin-1-yl)-2-((tetrahydro-2H-pyran-4-yl)amino)benzamide-3,5-d], the IC50 was 50 to 150 nM in the series with Ba/F3 EML-ALK cells and greater than 200 nM in series [1]. Further, the microsomal CLint at 1 μM in series [3] came out at 36.2 µL/min/mg; in series [4], 21.9 µL/min/mg. The half-life at 1 μM in series [3] was determined as 38.3 min; in series [4], 63.3 min.

For `[2H]c1cc(C(=O)Nc2n[nH]c3ccc(Cc4cc(F)cc(F)c4)cc23)c(NC2CCOCC2)c([2H])c1N1C([2H])([2H])C([2H])([2H])N(C([2H])([2H])[2H])C([2H])([2H])C1([2H])[2H]` [Compound T-6, N-(5-(3,5-difluorobenzyl)-1H-indazol-3-yl)-4-(4-(methyl-d3)piperazin-1-yl-2,2,3,3,5,5,6,6-d8)-2-((tetrahydro-2H-pyran-4-yl)amino)benzamide-3,5-d2], the IC50 in the series with Ba/F3 EML-ALK cells was 50 to 150 nM; in series [1], greater than 200 nM. In addition, the microsomal CLint at 1 μM in series [3] amounted to 42.5 µL/min/mg; in series [4], 29.7 µL/min/mg. The figures for the half-life at 1 μM in series [3] and in series [4] were 32.6 min and 46.7 min, respectively.

As to `[2H]C([2H])([2H])N1C([2H])([2H])C([2H])([2H])N(c2ccc(C(=O)Nc3n[nH]c4ccc(Cc5cc(F)cc(F)c5)cc34)c(NC3CCOCC3)c2)C([2H])([2H])C1([2H])[2H]` [Compound T-3, N-(5-(3,5-difluorobenzyl)-1H-indazol-3-yl)-4-(4-(methyl-d3)piperazin-1-yl-2,2,3,3,5,5,6,6-d8)-2-((tetrahydro-2H-pyran-4-yl)amino)benzamide], the IC50 in the series with Ba/F3 EML-ALK cells lay in the range of 50 to 150 nM. Also, in series [1], the IC50 is greater than 200 nM. Also, in series [2], the Cl_pred turned out to be 411 mL/min/kg, the F stood at 13.03%, the AUC(0-t) was 1550 ng·h/mL and the Cmax is 237 ng/mL. Besides, in series [2], the MRT came to 295 min and the Tmax was determined as 200 min. Further, in series [3], the microsomal CLint at 1 μM amounted to 39.2 µL/min/mg and the half-life at 1 μM is 35.4 min. Besides, in series [4], the microsomal CLint at 1 μM amounted to 27.3 µL/min/mg and the half-life at 1 μM is 50.7 min.

`[2H]C([2H])(c1cc(F)cc(F)c1)c1ccc2[nH]nc(NC(=O)c3ccc(N4CCN(C([2H])([2H])[2H])CC4)cc3NC3CCOCC3)c2c1` [Compound T-11, N-(5-((3,5-difluorophenyl)methyl-d2)-1H-indazol-3-yl)-4-(4-(methyl-d3)piperazin-1-yl)-2-((tetrahydro-2H-pyran-4-yl)amino)benzamide]: the figures for the IC50 (in the series with Ba/F3 EML-ALK cells; in series [1]) were 10 to 50 nM and greater than 200 nM, respectively. In addition, the microsomal CLint at 1 μM in series [3] is 45 µL/min/mg; in series [4], 31 µL/min/mg. Besides, the half-life at 1 μM in series [3] came out at 30.8 min; in series [4] it was 44.6 min.

Turning to `[2H]C([2H])(c1cc(F)cc(F)c1)c1ccc2[nH]nc(NC(=O)c3ccc(N4CCN(C)CC4)cc3NC3CCOCC3)c2c1` [Compound T-7, N-(5-((3,5-difluorophenyl)methyl-d2)-1H-indazol-3-yl)-4-(4-methylpiperazin-1-yl)-2-((tetrahydro-2H-pyran-4-yl)amino)benzamide], in the series on Ba/F3 EML-ALK cells, the IC50 fell in the range of 50 to 150 nM. The IC50 in series [1] was greater than 200 nM. In series [2], the Cl_pred came out at 97.5 mL/min/kg, the F is reported as 13.67%, the AUC(0-t) stood at 1770 ng·h/mL and the concentration peaked (Cmax) at 278 ng/mL. Also, in series [2], the MRT was determined as 317 min and the Tmax came to 240 min. In series [3], the microsomal CLint at 1 μM amounted to 51.1 µL/min/mg and the half-life at 1 μM was found to be 27.1 min. Also, in series [4], the microsomal CLint at 1 μM came out at 33.7 µL/min/mg and the half-life at 1 μM is 41.1 min.

Regarding `[2H]c1cc(C(=O)Nc2n[nH]c3ccc(Cc4cc(F)cc(F)c4)cc23)c(NC2CCOCC2)c([2H])c1N1CCN(C([2H])([2H])[2H])CC1` [Compound T-5, N-(5-(3,5-difluorobenzyl)-1H-indazol-3-yl)-4-(4-(methyl-d3)piperazin-1-yl)-2-((tetrahydro-2H-pyran-4-yl)amino)benzamide-3,5-d2], the IC50 in the series on Ba/F3 EML-ALK cells was 50 to 150 nM; in series [1], greater than 200 nM. Moreover, the microsomal CLint at 1 μM in series [3] came to 48.2 µL/min/mg; in series [4] it was 31 µL/min/mg. In addition, the half-life at 1 μM was 28.8 min in series [3] and 44.7 min in series [4].
